According to the supplement of paper PMC11451515:

Key:
Conditions in all cases: 48 h
NOMO1 [1] = experiment: cell viability relative to DMSO control; higher = less cytotoxic
Outline: (§1)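 Before seeding, each leukemia line was adapted for at least four passages in each medium. NOMO1 or SEM cells (500 cells/well) and P12-Ichikawa cells (1000 cells/well) went into 1536-well plates at 5 μl, then received library compounds in DMSO by pin dosing across 11 threefold concentrations, 47 μM to 0.79 nM. Readout was CellTiter-Glo One luminescence after 48 h at 37°C, and viability is given as a per-plate percentage of DMSO wells, with cell-free wells as background.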

P12-Ichikawa [2] = experiment: as above
Outline: as §1

SEM cells [3] = experiment: as above
Outline: as §1

NOMO1 [4] = experiment: AUC of viability dose-response curve (% viability x log10 dose units); higher = less sensitive
Outline: (§2)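 Leukemia cells adapted to each medium were seeded at 500 or 1000 cells/well in 1536-well plates and dosed with library compounds in DMSO at 11 threefold doses from 47 μM to 0.79 nM for 48 h at 37°C. CellTiter-Glo One luminescence was normalised per plate to DMSO and cell-free wells, then fitted with a four-parameter log-logistic model over log10 doses. Area under the curve was taken from this fit by the trapezoidal rule, with curves above full viability scaled and curves failing quality control removed.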

P12-Ichikawa [5] = experiment: as above
Outline: as §2

SEM cells [6] = experiment: as above
Outline: as §2

CC(C)n1nc(-c2cc3cc(O)ccc3[nH]2)c2c(N)ncnc21
cell viability [%]
Conditions	NOMO1 [1]	P12-Ichikawa [2]	SEM cells [3]
HPLM + 10% dialyzed FBS, 0.000781 µM	79	109	93.3
HPLM + 10% dialyzed FBS, 0.00234 µM	124	107	104
HPLM + 10% dialyzed FBS, 0.00702 µM	110	112	111
HPLM + 10% dialyzed FBS, 0.0211 µM	107	106	94.3
HPLM + 10% dialyzed FBS, 0.0632 µM	99.7	99.4	81
HPLM + 10% dialyzed FBS, 0.19 µM	94.7	90	84.4
HPLM + 10% dialyzed FBS, 0.569 µM	65.7	73	45.2
HPLM + 10% dialyzed FBS, 1.71 µM	61.6	72.7	52.9
HPLM + 10% dialyzed FBS, 5.12 µM	44.7	64.9	25.9
HPLM + 10% dialyzed FBS, 15.4 µM	31.2	47.4	16.7
HPLM + 10% dialyzed FBS, 46.1 µM	27	36.8	6.97
RPMI 5 mM glucose + 10% FBS, 0.000781 µM	96.2	100	106
RPMI 5 mM glucose + 10% FBS, 0.00234 µM	113	109	107
RPMI 5 mM glucose + 10% FBS, 0.00702 µM	104	110	114
RPMI 5 mM glucose + 10% FBS, 0.0211 µM	105	95.3	136
RPMI 5 mM glucose + 10% FBS, 0.0632 µM	104	92.8	108
RPMI 5 mM glucose + 10% FBS, 0.19 µM	96.6	79.5	85.4
RPMI 5 mM glucose + 10% FBS, 0.569 µM	88.1	66.5	66.3
RPMI 5 mM glucose + 10% FBS, 1.71 µM	90.2	56.9	66
RPMI 5 mM glucose + 10% FBS, 5.12 µM	71.8	52.5	38
RPMI 5 mM glucose + 10% FBS, 15.4 µM	44.1	35.4	23.6
RPMI 5 mM glucose + 10% FBS, 46.1 µM	23	17.5	8.3
RPMI 5 mM glucose + 10% dialyzed FBS, 0.000781 µM	111	105	90.8
RPMI 5 mM glucose + 10% dialyzed FBS, 0.00234 µM	110	116	99.4
RPMI 5 mM glucose + 10% dialyzed FBS, 0.00702 µM	100	111	92.4
RPMI 5 mM glucose + 10% dialyzed FBS, 0.0211 µM	101	118	87.7
RPMI 5 mM glucose + 10% dialyzed FBS, 0.0632 µM	101	108	94.8
RPMI 5 mM glucose + 10% dialyzed FBS, 0.19 µM	90.9	86.4	87.6
RPMI 5 mM glucose + 10% dialyzed FBS, 0.569 µM	76.7	73.6	48.7
RPMI 5 mM glucose + 10% dialyzed FBS, 1.71 µM	78	66.6	52.4
RPMI 5 mM glucose + 10% dialyzed FBS, 5.12 µM	54.2	48.6	35.4
RPMI 5 mM glucose + 10% dialyzed FBS, 15.4 µM	34.1	30.8	20.9
RPMI 5 mM glucose + 10% dialyzed FBS, 46.1 µM	14.1	20.5	6.33

AUC of viability dose-response curve
Conditions	NOMO1 [4]	P12-Ichikawa [5]	SEM cells [6]
HPLM + 10% dialyzed FBS	350	360	306
RPMI 5 mM glucose + 10% FBS	399	332	327
RPMI 5 mM glucose + 10% dialyzed FBS	355	341	317

CC/1=C/C(=O)N(O)/C(=C1)C2CCCCC2
cell viability [%]
Conditions	NOMO1 [1]	P12-Ichikawa [2]	SEM cells [3]
HPLM + 10% dialyzed FBS, 0.000781 µM	110	115	82.9
HPLM + 10% dialyzed FBS, 0.00234 µM	117	118	89.7
HPLM + 10% dialyzed FBS, 0.00702 µM	135	123	119
HPLM + 10% dialyzed FBS, 0.0211 µM	146	132	111
HPLM + 10% dialyzed FBS, 0.0632 µM	143	130	116
HPLM + 10% dialyzed FBS, 0.19 µM	145	125	106
HPLM + 10% dialyzed FBS, 0.569 µM	140	121	126
HPLM + 10% dialyzed FBS, 1.71 µM	136	127	126
HPLM + 10% dialyzed FBS, 5.12 µM	139	113	117
HPLM + 10% dialyzed FBS, 15.4 µM	79	74.8	50.8
HPLM + 10% dialyzed FBS, 46.1 µM	39.8	28.5	12.6
RPMI 5 mM glucose + 10% FBS, 0.000781 µM	–	–	113
RPMI 5 mM glucose + 10% FBS, 0.00234 µM	–	–	111
RPMI 5 mM glucose + 10% FBS, 0.00702 µM	–	–	135
RPMI 5 mM glucose + 10% FBS, 0.0211 µM	–	–	124
RPMI 5 mM glucose + 10% FBS, 0.0632 µM	–	–	129
RPMI 5 mM glucose + 10% FBS, 0.19 µM	–	–	143
RPMI 5 mM glucose + 10% FBS, 0.569 µM	–	–	140
RPMI 5 mM glucose + 10% FBS, 1.71 µM	–	–	147
RPMI 5 mM glucose + 10% FBS, 5.12 µM	–	–	101
RPMI 5 mM glucose + 10% FBS, 15.4 µM	–	–	55.3
RPMI 5 mM glucose + 10% FBS, 46.1 µM	–	–	14.2
RPMI 5 mM glucose + 10% dialyzed FBS, 0.000781 µM	–	–	92.9
RPMI 5 mM glucose + 10% dialyzed FBS, 0.00234 µM	–	–	94.4
RPMI 5 mM glucose + 10% dialyzed FBS, 0.00702 µM	–	–	126
RPMI 5 mM glucose + 10% dialyzed FBS, 0.0211 µM	–	–	117
RPMI 5 mM glucose + 10% dialyzed FBS, 0.0632 µM	–	–	122
RPMI 5 mM glucose + 10% dialyzed FBS, 0.19 µM	–	–	147
RPMI 5 mM glucose + 10% dialyzed FBS, 0.569 µM	–	–	140
RPMI 5 mM glucose + 10% dialyzed FBS, 1.71 µM	–	–	144
RPMI 5 mM glucose + 10% dialyzed FBS, 5.12 µM	–	–	113
RPMI 5 mM glucose + 10% dialyzed FBS, 15.4 µM	–	–	56.4
RPMI 5 mM glucose + 10% dialyzed FBS, 46.1 µM	–	–	14.4

AUC of viability dose-response curve
Conditions	NOMO1 [4]	P12-Ichikawa [5]	SEM cells [6]
HPLM + 10% dialyzed FBS	441	435	430
RPMI 5 mM glucose + 10% FBS	445	415	419
RPMI 5 mM glucose + 10% dialyzed FBS	446	430	427
